Test results as given in patent US20260125382A1, “COMPOUNDS FOR INHIBITING OR DEGRADING CDK2 AND/OR CDK9 AND MEDICINAL USE THEREOF” (KOREA RESEARCH INSTITUTE OF CHEMICAL TECHNOLOGY, priority 2022, published 2026).

Key:
[1] = biological target: T1, CDK2 (Homo sapiens, UniProt P24941); assay: CDK protein degradation activity (Western blotting), CDK2; format: cell-based; settings: MDA-MB-231 cells, 16 hours, Western blot
T1 construct: endogenous in cells; host or cells: MDA-MB-231
Outline: (§1)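 Protein levels were read by Western blot densitometry, tubulin serving as loading reference. Beforehand, MDA-MB-231 cells had been exposed for 16 hours to 100 nM, 1 μM or 10 μM compound, DMSO as control.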

[2] = biological target: T2, CDK9 (Homo sapiens, UniProt P50750); assay: CDK protein degradation activity (Western blotting), CDK9; format: cell-based; settings: MDA-MB-231 cells, 16 hours, Western blot
T2 construct: endogenous in cells; host or cells: MDA-MB-231
T2 sequence (P50750 whole entry): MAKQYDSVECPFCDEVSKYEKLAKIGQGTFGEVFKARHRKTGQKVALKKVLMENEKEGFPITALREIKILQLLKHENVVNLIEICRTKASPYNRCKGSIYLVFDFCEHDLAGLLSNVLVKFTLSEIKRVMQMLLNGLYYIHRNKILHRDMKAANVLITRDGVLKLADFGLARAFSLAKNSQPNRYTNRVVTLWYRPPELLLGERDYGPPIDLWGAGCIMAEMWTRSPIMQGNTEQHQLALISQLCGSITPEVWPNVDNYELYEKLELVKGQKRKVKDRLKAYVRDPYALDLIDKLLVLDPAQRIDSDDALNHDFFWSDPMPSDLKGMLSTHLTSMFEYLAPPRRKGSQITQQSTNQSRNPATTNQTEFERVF
Outline: as §1

Structure (SMILES) | Enzyme degradation CDK2 (% remaining) @ 0.1 μM [1] | Enzyme degradation CDK2 (% remaining) @ 1 μM [1] | Enzyme degradation CDK2 (% remaining) @ 10 μM [1] | Enzyme degradation CDK9 (% remaining) @ 0.1 μM [2] | Enzyme degradation CDK9 (% remaining) @ 1 μM [2] | Enzyme degradation CDK9 (% remaining) @ 10 μM [2]
Cc1cccc(C(=O)N[C@H]2C[C@@H](n3cnc4c(Nc5ccc(N6CCN(CC7CCN(c8ccc9c(c8)C(=O)N([C@H]8CCC(=O)NC8=O)C9=O)CC7)CC6)cc5)ncnc43)C2)n1 [Compound 88, N-((1s,3s)-3-(6-((4-(4-((1-(2-(2,6-dioxopiperidin-3-yl)-1,3-dioxoisoindolin-5-yl)piperidin-4-yl)methyl)piperazin-1-yl)phenyl)amino)-9H-purin-9-yl)cyclobutyl)-6-methylpicolinamide] | 20/20/20% | 20/20/20% | 20/20/20% | 0/0/0% | 0/0/0% | 0/0/0%
Cc1cccc(C(=O)NC2CC(n3cnc4c(Nc5ccc(N6CCN(CC7CCN(c8cccc9c8C(=O)N([C@H]8CCC(=O)NC8=O)C9=O)CC7)CC6)cc5)ncnc43)C2)n1 (stereo partly drawn) [Compound 89, N-((1s,3s)-3-(6-((4-(4-((1-(2-(2,6-dioxopiperidin-3-yl)-1,3-dioxoisoindolin-4-yl)piperidin-4-yl)methyl)piperazin-1-yl)phenyl)amino)-9H-purin-9-yl)cyclobutyl)-6-methylpicolinamide] | 70% | 50% | 90% | 10% | 0% | 0%
Cc1cccc(C(=O)N[C@H]2C[C@@H](n3cnc4c(Nc5ccc(N6CCN(CC7CCN(C(=O)COc8ccc9c(c8)C(=O)N([C@H]8CCC(=O)NC8=O)C9=O)CC7)CC6)cc5)ncnc43)C2)n1 [Compound 90, N-((1s,3s)-3-(6-((4-(4-((1-(2-((2-(2,6-dioxopiperidin-3-yl)-1,3-dioxoisoindolin-5-yl)oxy)acetyl)piperidin-4-yl)methyl)piperazin-1-yl)phenyl)amino)-9H-purin-9-yl)cyclobutyl)-6-methylpicolinamide] | 40% | 20% | 10% | 0/0/0% | 0/0/0% | 0/0/0%
Cc1cccc(C(=O)NC2CC(n3cnc4c(Nc5ccc(N6CCN(CC7CCN(C(=O)CNc8ccc9c(c8)C(=O)N([C@H]8CCC(=O)NC8=O)C9=O)CC7)CC6)cc5)ncnc43)C2)n1 (stereo partly drawn) [Compound 92, N-((1s,3s)-3-(6-((4-(4-((1-((2-(2,6-dioxopiperidin-3-yl)-1,3-dioxoisoindolin-5-yl)glycyl)piperidin-4-yl)methyl)piperazin-1-yl)phenyl)amino)-9H-purin-9-yl)cyclobutyl)-6-methylpicolinamide] | 40% | 20% | 20% | 10% | 0% | 0%
Cc1cccc(C(=O)NC2CC(n3cnc4c(Nc5ccc(N6CCN(CC7CCN(C(=O)CNc8cccc9c8C(=O)N([C@H]8CCC(=O)NC8=O)C9=O)CC7)CC6)cc5)ncnc43)C2)n1 (stereo partly drawn) [Compound 93, N-((1s,3s)-3-(6-((4-(4-((1-((2-(2,6-dioxopiperidin-3-yl)-1,3-dioxoisoindolin-4-yl)glycyl)piperidin-4-yl)methyl)piperazin-1-yl)phenyl)amino)-9H-purin-9-yl)cyclobutyl)-6-methylpicolinamide] | 0% | 10% | 10% | 0/0/0% | 0/0/0% | 0/0/0%
Cc1cccc(C(=O)N[C@H]2C[C@@H](n3cnc4c(NCc5cccc(OCC6CCN(C(=O)COc7ccc8c(c7)C(=O)N([C@H]7CCC(=O)NC7=O)C8=O)CC6)c5)ncnc43)C2)n1 [Compound 94, N-((1s,3s)-3-(6-((3-((1-(2-((2-(2,6-dioxopiperidin-3-yl)-1,3-dioxoisoindolin-5-yl)oxy)acetyl)piperidin-4-yl)methoxy)benzyl)amino)-9H-purin-9-yl)cyclobutyl)-6-methylpicolinamide] | 80% | 60% | 90% | 50% | 10% | 20%
Cc1cccc(C(=O)N[C@H]2C[C@@H](n3cnc4c(NCc5cccc(OCC6CCN(C(=O)CNc7ccc8c(c7)C(=O)N(C7CCC(=O)NC7=O)C8=O)CC6)c5)ncnc43)C2)n1 (stereo partly drawn) [Compound 96, N-((1s,3s)-3-(6-((3-((1-((2-(2,6-dioxopiperidin-3-yl)-1,3-dioxoisoindolin-5-yl)glycyl)piperidin-4-yl)methoxy)benzyl)amino)-9H-purin-9-yl)cyclobutyl)-6-methylpicolinamide] | 60% | 40% | 50% | 10% | 0% | 0%
Cc1cccc(C(=O)N[C@H]2C[C@@H](n3cnc4c(NCc5cccc(OCCCN6CCN(C(=O)COc7cccc8c7C(=O)N([C@H]7CCC(=O)NC7=O)C8=O)CC6)c5)ncnc43)C2)n1 [Compound 101, N-((1s,3s)-3-(6-((3-(3-(4-(2-((2-(2,6-dioxopiperidin-3-yl)-1,3-dioxoisoindolin-4-yl)oxy)acetyl)piperazin-1-yl)propoxy)benzyl)amino)-9H-purin-9-yl)cyclobutyl)-6-methylpicolinamide] | 70% | 50% | 40% | 80% | 30% | 30%
Cc1cccc(C(=O)N[C@H]2C[C@@H](n3cnc4c(NCc5cccc(OCCCN6CCN(C(=O)CNc7ccc8c(c7)C(=O)N([C@H]7CCC(=O)NC7=O)C8=O)CC6)c5)ncnc43)C2)n1 [Compound 102, N-((1s,3s)-3-(6-((3-(3-(4-((2-(2,6-dioxopiperidin-3-yl)-1,3-dioxoisoindolin-5-yl)glycyl)piperazin-1-yl)propoxy)benzyl)amino)-9H-purin-9-yl)cyclobutyl)-6-methylpicolinamide] | 100% | 70% | 70% | 90% | 20% | 10%
Cc1cccc(C(=O)N[C@H]2C[C@@H](n3cnc4c(NCc5cccc(OCCCN6CCN(C(=O)CNc7cccc8c7C(=O)N([C@H]7CCC(=O)NC7=O)C8=O)CC6)c5)ncnc43)C2)n1 [Compound 103, N-((1s,3s)-3-(6-((3-(3-(4-((2-(2,6-dioxopiperidin-3-yl)-1,3-dioxoisoindolin-4-yl)glycyl)piperazin-1-yl)propoxy)benzyl)amino)-9H-purin-9-yl)cyclobutyl)-6-methylpicolinamide] | 40% | 40% | 60% | 30% | 10% | 10%
Cc1cccc(C(=O)N[C@H]2C[C@@H](n3cnc4c(NCc5ccc(OCC6CCN(C(=O)COc7ccc8c(c7)C(=O)N([C@H]7CCC(=O)NC7=O)C8=O)CC6)cc5)ncnc43)C2)n1 [Compound 106, N-((1s,3s)-3-(6-((4-((1-(2-((2-(2,6-dioxopiperidin-3-yl)-1,3-dioxoisoindolin-5-yl)oxy)acetyl)piperidin-4-yl)methoxy)benzyl)amino)-9H-purin-9-yl)cyclobutyl)-6-methylpicolinamide] | 70% | 50% | 50% | 70% | 0% | 0%
Cc1cccc(C(=O)NC2CC(n3cnc4c(NCc5ccc(OCC6CCN(C(=O)COc7cccc8c7C(=O)N([C@H]7CCC(=O)NC7=O)C8=O)CC6)cc5)ncnc43)C2)n1 (stereo partly drawn) [Compound 107, N-((1s,3s)-3-(6-((4-((1-(2-((2-(2,6-dioxopiperidin-3-yl)-1,3-dioxoisoindolin-4-yl)oxy)acetyl)piperidin-4-yl)methoxy)benzyl)amino)-9H-purin-9-yl)cyclobutyl)-6-methylpicolinamide] | 60% | 50% | 100% | 90% | 20% | 0%
